Assay results taken from patent US20260000620A1, “ORAL DOSAGE FORMS” (priority 2022, published 2026).
Positions of bridges follow the written chain, without caps; N, C: chain ends. Residues, ends and D or L forms follow the SMILES beside them.

Assays:
[1] = dog, in vivo, iv
Procedure: (§1) A dog PK study with terlipressin capsules was carried out essentially as described in Example 2. The key differences are as follows:
(§2) Test article administration: Animals were fasted for at least 12 hours prior to dosing and through the first 4 hours of blood sample collection (food was returned within 30 minutes following collection of the last blood sample at the 4 hour collection interval).
(§3) Intravenous administration: Animals in Phase 1 (groups 1 and 2) received a single iv of glypressin of 0.04 or 0.2 mg terlipressin base (0.24 or 1.2 mL/animal, respectively). Dosing was performed by 1 minute slow injection via the cephalic vein, using a catheter.
(§4) Blood collection: Blood samples (approximately 3 mL/sample) were collected from the jugular vein in the following time points:
(§5) Blood samples were placed into tubes containing K2EDTA. The samples were centrifuged under refrigerated (2 to 8° C.) conditions within 30 minutes of sample collection and the resulting plasma was separated and split into two approximately equal aliquots. Each plasma sample was placed into pre-chilled tubes that were placed on dry ice until frozen at −60° to −90° C. Bioanalysis was performed for plasma concentrations of both terlipressin and LVP.
(§6) Bioanalysis of plasma samples was performed using a LC-MS/MS method for quantitation of terlipressin and [Lys8]—Vasopressin in Dog Plasma.

[2] = in vivo; conditions: beagle, dog, iv
Procedure: as §1, §2, §3, §4, §5, §6

Q: With `NCCCC[C@H](NC(=O)[C@@H]1CCCN1C(=O)[C@@H]1CSSC[C@H](NC(=O)CNC(=O)CNC(=O)CN)C(=O)N[C@@H](Cc2ccc(O)cc2)C(=O)N[C@@H](Cc2ccccc2)C(=O)N[C@@H](CCC(N)=O)C(=O)N[C@@H](CC(N)=O)C(=O)N1)C(=O)NCC(N)=O` [terlipressin, triglycyl lysine vasopressin] (H-GGGCYFQNCPKG-NH2; disulfide 4-9) as the molecule, how does the “increase of both LVP AUCs from 0.04 mg to 0.2 mg” value [1] read?
A: 3.7 fold

Q: What about the AUC(0-inf) ([2]; 0.04 mg) of the same molecule?
A: 1.77 ng·h/mL

Q: What about the AUC(0-t) ([2]; 0.04 mg) of the same molecule?
A: 1.82 ng·h/mL

Q: And the Cmax ([2]; 0.04 mg)?
A: 12.6 ng/mL

Q: And the Tmax ([2]; 0.04 mg)?
A: 4.98 min

Q: What about the half-life ([2]; 0.04 mg) of the same molecule?
A: 4.44 min

Q: What about the AUC(0-inf) ([2]; 0.2 mg) of the same molecule?
A: 9.14 ng·h/mL

Q: What about the AUC(0-t) ([2]; 0.2 mg) of the same molecule?
A: 9.13 ng·h/mL

Q: What about the Cmax ([2]; 0.2 mg) of the same molecule?
A: 59.1 ng/mL

Q: And the Tmax ([2]; 0.2 mg)?
A: 4.02 min

Q: And the half-life ([2]; 0.2 mg)?
A: 13.9 min
